We go through 27 compounds from patent publication US9701664B2, “Fused 1,4-dihydrodioxin derivatives as inhibitors of heat shock transcription factor 1” (Cancer Research Technology Limited, priority 2013, dated 2017).

As a reminder, the IC50 is the point on the concentration scale where inhibition reaches its midpoint.

For one test, the system named is U2OS cells. Kind of test: Titre Blue cell viability assay, U2OS cells. The class given is cell-based.
A further test concerns HSP72 in U2OS cells. Kind of test: Cell-based ELISA (Cellisa) assay, U2OS cells: inhibition of 17-AAG-induced HSP72. To be noted: U2OS cells (Examples 1-168). Here is the method: U2OS cells (5-8×10^4 cells/mL) or SK-OV-3 cells (5-8×10^4 cells/mL) were seeded into 96-well plates and incubated at 37° C. for 48 h. Compounds were then added at a range of concentrations and incubated for 1 h before addition of 17-AAG (250 nM). Cells were then incubated for 18 h. The medium was removed washed 2× with PBS and cells were then fixed with fixing solution (4% paraformaldehyde, 0.3% TritonX-100 in PBS) for 30 min at 4° C. The plates were then washed 2× with PBS before blocking with 5% milk for 30 min at 37° C. After washing the plates 4× with 0.1% Tween-20/deionised water, HSP72 antibody (SPA-810, Enzo Life) was added for 1.5 h at 37° C. Following 4× washes, the plates were incubated with europium-labelled anti-mouse antibody (0.6 ug/ml) in Delfia assay buffer (Perkin Elmer) for 1 h at 37° C. After washing the plates, Delfia enhancement solution was added, shaken for 10 min before reading in the Envision plate reader (Perkin-Elmer) with excitation at 340 nm and emission at 615 nm. The plates were washed again before protein determination using the bicinchoninic acid assay (BCA assay, Pierce Biotechnology). The europium counts were normalised for the amount of protein in each well. The 50% inhibitory concentration value of the compound was then calculated.
On the technique in general: ELISA stands for enzyme-linked immunosorbent assay.

Structures can show the parent of a compound that is named as a salt. Where two headings read alike, the source gives them in different places.

Take `Cc1ccc2cc(C(=O)Nc3cccc(NC(=O)c4ccc5c(c4)OCCO5)c3)ccc2n1` [Example 113, N-(3-(2,3-dihydrobenzo[b][1,4]dioxine-6-carboxamido)phenyl)-2-methylquinoline-6-carboxamide]: the IC50 is 117 nM in the test with U2OS cells (Homo sapiens, U2OS) and 160 nM in the test with HSP72 in U2OS cells (Homo sapiens). On to `Cc1ccc(NC(=O)c2ccc3c(c2)OCCO3)cc1NC(=O)c1ccc(OCc2cscn2)cc1` [Example 101, N-(4-methyl-3-(4-(thiazol-4-ylmethoxy)benzamido)phenyl)-2,3-dihydrobenzo[b][1,4]dioxine-6-carboxamide], for which the IC50 was determined as 59 nM in the test on U2OS cells (Homo sapiens, U2OS) and 122 nM in the test with HSP72 in U2OS cells (Homo sapiens). For `Cc1ccc(NC(=O)c2ccc3c(c2)OCCO3)cc1NC(=O)c1ccc2cnccc2c1` [Example 46, N-(5-(2,3-dihydrobenzo[b][1,4]dioxine-6-carboxamido)-2-methylphenyl)isoquinoline-6-carboxamide], in that order: 12 nM and 4 nM.

As to `Cc1ccc(NC(=O)c2ccc3c(c2)OCCO3)cc1NC(=O)c1ccc2[nH]ncc2c1` [Example 97, N-(5-(2,3-dihydrobenzo[b][1,4]dioxine-6-carboxamido)-2-methylphenyl)-1H-indazole-5-carboxamide], the IC50 in the test on U2OS cells (Homo sapiens, U2OS) turned out to be 32 nM; in the test with HSP72 in U2OS cells (Homo sapiens), 59 nM. For `Cc1ccc(NC(=O)c2ccc3c(c2)OCCO3)cc1NC(=O)c1ccc2nc(CN3CCCC3)ccc2c1` [Example 67, N-(5-(2,3-dihydrobenzo[b][1,4]dioxine-6-carboxamido)-2-methylphenyl)-2-(pyrrolidin-1-ylmethyl)quinoline-6-carboxamide formate], in that order: 33 nM and 35 nM.

Turning to `Cc1ccc(NC(=O)c2ccc3c(c2)OCCO3)cc1NC(=O)c1ccc2c(c1)CCC(C)N2` (centres unmarked) [Example 152, N-(5-(2,3-dihydrobenzo[b][1,4]dioxine-6-carboxamido)-2-methylphenyl)-2-methyl-1,2,3,4-tetrahydroquinoline-6-carboxamide], the IC50 in the test on U2OS cells (Homo sapiens, U2OS) came to 153 nM; with HSP72 in U2OS cells (Homo sapiens) it was 105 nM. On to `O=C(Nc1ccc(Cl)c(NC(=O)c2ccc3ncccc3c2)c1)c1ccc2c(c1)OCCO2` [Example 149, N-(2-chloro-5-(2,3-dihydrobenzo[b][1,4]dioxine-6-carboxamido)phenyl)quinoline-6-carboxamide], for which the IC50 came to 20 nM in the test on U2OS cells (Homo sapiens, U2OS) and 63 nM in the test with HSP72 in U2OS cells (Homo sapiens). For `Cc1ccc(NC(=O)c2ccc3c(c2)OCO3)cc1NC(=O)c1ccc2ncccc2c1` [Example 131, N-(5-(benzo[d][1,3]dioxole-5-carboxamido)-2-methylphenyl)quinoline-6-carboxamide], in that order: 74 nM and 171 nM. As for `Cc1ccc(NC(=O)c2ccc3c(c2)OCCO3)cc1NC(=O)c1ccc2nc(OC3CCN(C)CC3)ccc2c1` [Example 50, N-(5-(2,3-dihydrobenzo[b][1,4]dioxine-6-carboxamido)-2-methylphenyl)-2-((1-methylpiperidin-4-yl)oxy)quinoline-6-carboxamide], the IC50 with U2OS cells (Homo sapiens, U2OS) turned out to be 10 nM; in the test on HSP72 in U2OS cells (Homo sapiens) it was 3 nM. As to “2-(2-aminoethoxy)-N-(5-(2,3-dihydrobenzo[b][1,4]dioxine-6-carboxamido)-2-methyl)phenyl)quinoline-6-carboxamide [Example 89]”, the IC50 with U2OS cells was determined as 15 nM; in the test on HSP72 in U2OS cells, 13 nM. For `Cc1ccc(NC(=O)c2ccc3c(c2)OCCO3)cc1NC(=O)c1ccc2nc(OCCNC(=O)OC(C)(C)C)ccc2c1` [Example 21, tert-butyl (2-((6-((5-(2,3-dihydrobenzo[b][1,4]dioxine-6-carboxamido)-2-methylphenyl)carbamoyl)quinolin-2-yl)oxy)ethyl)carbamate], the IC50 stood at 84 nM in the test with U2OS cells (Homo sapiens, U2OS) and 141 nM with HSP72 in U2OS cells (Homo sapiens).

Take `Cc1ccc(NC(=O)c2ccc3c(c2)OCCO3)cc1NC(=O)c1ccc2nc(COCC3CCCO3)ccc2c1` (centres unmarked) [Example 146, N-(5-(2,3-dihydrobenzo[b][1,4]dioxine-6-carboxamido)-2-methylphenyl)-2-(((tetrahydrofuran-2-yl)methoxy)methyl)quinoline-6-carboxamide]: the IC50 was 20 nM in the test with U2OS cells (Homo sapiens, U2OS) and 77 nM in the test on HSP72 in U2OS cells (Homo sapiens). The matching figures for `Cc1ccc(NC(=O)c2ccc3c(c2)OCCO3)cc1NC(=O)c1ccc2cnc(OCCN3CCCC3)cc2c1` [Example 156, N-(5-(2,3-dihydrobenzo[b][1,4]dioxine-6-carboxamido)-2-methylphenyl)-3-(2-(pyrrolidin-1-yl)ethoxy)isoquinoline-6-carboxamide]: 79 nM and 161 nM. Turning to `Cc1ccc(NC(=O)c2ccc3c(c2)OCCO3)cc1NC(=O)c1ccc2nc(CCO)ccc2c1` [Example 75, N-(5-(2,3-dihydrobenzo[b][1,4]dioxine-6-carboxamido)-2-methylphenyl)-2-(2-hydroxyethyl)quinoline-6-carboxamide], the IC50 is 56 nM in the test on U2OS cells (Homo sapiens, U2OS) and 17 nM with HSP72 in U2OS cells (Homo sapiens).

In the test with HSP72 in U2OS cells (Homo sapiens), `COCCOc1cc(OC)c2cc(C(=O)Nc3cc(NC(=O)c4ccc5c(c4)OCCO5)ccc3C)ccc2n1` [Example 22, N-(5-(2,3-dihydrobenzo[b][1,4]dioxine-6-carboxamido)-2-methylphenyl)-4-methoxy-2-(2-methoxyethoxy)quinoline-6-carboxamide] gave an IC50 of 160 nM. On the same count and under the same terms, to `CNCC1CCc2cc(C(=O)Nc3cc(NC(=O)c4ccc5c(c4)OCCO5)ccc3C)ccc2N1` (centres unmarked) [Example 86, N-(5-(2,3-dihydrobenzo[b][1,4]dioxine-6-carboxamido)-2-methylphenyl)-2-((methylamino)methyl)-1,2,3,4-tetrahydroquinoline-6-carboxamide] belongs 195 nM; to `Cc1ccc(NC(=O)c2ccc3c(c2)OCCO3)cc1NC(=O)c1cnc2cccc(CCO)c2c1` [Example 157, N-(5-(2,3-dihydrobenzo[b][1,4]dioxine-6-carboxamido)-2-methylphenyl)-5-(2-hydroxyethyl)quinoline-3-carboxamide], 221 nM; to `Cc1ccc(NC(=O)c2ccc3c(c2)OCCO3)cc1NC(=O)c1ccc2c(c1)CCN2C(=O)OC(C)(C)C` [Example 30, tert-butyl 5-((5-(2,3-dihydrobenzo[b][1,4]dioxine-6-carboxamido)-2-methylphenyl)carbamoyl)indoline-1-carboxylate], 507 nM.

Regarding `CCC(=O)NCCNc1ccc2cc(C(=O)Nc3cc(NC(=O)c4ccc5c(c4)OCCO5)ccc3C)ccc2n1` [Example 83, N-(5-(2,3-dihydrobenzo[b][1,4]dioxine-6-carboxamido)-2-methylphenyl)-2-((2-propionamidoethyl)amino)quinoline-6-carboxamide], half-maximal inhibition in the test with HSP72 in U2OS cells (Homo sapiens) (IC50) required 161 nM.

Consider `COCCOc1cc(C(=O)Nc2cc(NC(=O)c3ccc4c(c3)OCCO4)ccc2C)cc2cccnc12` [Example 160, N-(5-(2,3-dihydrobenzo[b][1,4]dioxine-6-carboxamido)-2-methylphenyl)-8-(2-methoxyethoxy)quinoline-6-carboxamide], for which, in the test with HSP72 in U2OS cells (Homo sapiens), the IC50 was determined as 383 nM. In the case of `Cc1ccc(NC(=O)c2ccc3c(c2)OCCO3)cc1NC(=O)c1ccc2nc(C(F)(F)F)[nH]c2c1` [Example 90, N-(5-(2,3-dihydrobenzo[b][1,4]dioxine-6-carboxamido)-2-methylphenyl)-2-(trifluoromethyl)-1H-benzo[d]imidazole-6-carboxamide], in the test on U2OS cells (Homo sapiens, U2OS), half-maximal inhibition (IC50) required 1360 nM.

In the case of `Cc1ccc(NC(=O)c2ccc3c(c2)OCCO3)cc1NC(=O)c1ccc(Nc2ccccc2)nc1` [Example 94, N-(5-(2,3-dihydrobenzo[b][1,4]dioxine-6-carboxamido)-2-methylphenyl)-6-(phenylamino)nicotinamide], in the test with HSP72 in U2OS cells (Homo sapiens), half-maximal inhibition (IC50) required 73 nM. This lies in the double-digit nanomolar range.

For `Cc1ccc(NC(=O)c2ccc3c(c2)OCCO3)cc1NC(=O)c1ccc2ncccc2c1` [Example 1, N-(5-(2,3-dihydrobenzo[b][1,4]dioxine-6-carboxamido)-2-methylphenyl)quinoline-6-carboxamide], the half-maximal inhibitory concentration (IC50) with HSP72 in U2OS cells (Homo sapiens) was found to be 5 nM.

`Cc1ccc(NC(=O)c2ccc3c(c2)OCCO3)cc1NC(=O)c1ccc2nc(N3CCN(C)CC3)ccc2c1` [Example 74, N-(5-(2,3-dihydrobenzo[b][1,4]dioxine-6-carboxamido)-2-methylphenyl)-2-(4-methylpiperazin-1-yl)quinoline-6-carboxamide]: the midpoint of inhibition in the test on HSP72 in U2OS cells (Homo sapiens), the IC50, lay at 232 nM. As for `Cc1ccc(NC(=O)c2ccc3c(c2)OCCO3)cc1NC(=O)c1ccc(Nc2cccc(OC3CCN(C)CC3)c2)nc1` [Example 121, N-(5-(2,3-dihydrobenzo[b][1,4]dioxine-6-carboxamido)-2-methylphenyl)-6-(3-(1-methylpiperidin-4-yloxy)phenylamino)nicotinamide], the midpoint of inhibition in the test on U2OS cells (Homo sapiens, U2OS), the IC50, lay at 338 nM. That is a sub-micromolar value. With `Cc1ccc(NC(=O)c2ccc3c(c2)OCCO3)cc1NC(=O)c1ccnc(N2CCOCC2)c1` [Example 98, N-(5-(2,3-dihydrobenzo[b][1,4]dioxine-6-carboxamido)-2-methylphenyl)-2-morpholinoisonicotinamide], the IC50 in the test with HSP72 in U2OS cells (Homo sapiens) turned out to be 2660 nM. On the same count and under the same terms, the result for `Cc1ccc(NC(=O)c2ccc3c(c2)OCCO3)cc1NC(=O)c1ccc2c(c1)CCNC2` [Example 88, N-(5-(2,3-dihydrobenzo[b][1,4]dioxine-6-carboxamido)-2-methylphenyl)-1,2,3,4-tetrahydroisoquinoline-6-carboxamide] reads 770 nM.
